Assay results taken from article PMC6768041 (Chemistry Central Journal, 2018).

Assays:
[1] = DPPH radical scavenging assay; conditions: mean ± SEM, n = 3
Protocol: DPPH (2,2-diphenyl-1-picryl-hydrazyl-hydrate) free radical process is an antioxidant assay based on electron-transfer that turns violet color in ethanol. The antioxidant activity was based on free radical scavenging effect towards stable DPPH• radical upon spectrophotometric reaction according to the method reported in the literature. Briefly, solutions of synthesized compounds were prepared in fifty milliliters of various concentrations (25, 50, 75, and 100) µg/mL dissolved in methanol, was added to 5 mL of a 0.004% methanol solution of DPPH. The stock solution was prepared with 0.01% DPPH• in ethanol/water (1:1). While sample solutions were prepared as 5 mL DPPH• solution was mixed with 5 mL ascorbic acid solution then shaken vigorously and kept in the dark at 37 °C. The samples were incubated at the 37 °C temperature for 30 min in the dark chamber subsequently, absorbance was measured. The marketable recognized antioxidant, ascorbic acid was utilized for contrast or as a positive control. Initially, the blank spectrum for ethanol/water was recorded subsequently the spectrophotometric titration was carried out with various concentrations of synthesized compounds. The absorbance was recorded at 517 nm with UV/Vis Epoch ELISA reader, and antioxidant activity was measured as a decrease in absorbance of DPPH•. The IC50 values of free radical DPPH, based on control reading were calculated by the following equation. %inhibition of DPPH radical=Abr-Aar/Abr×100 where Abr is the absorbance prior to reaction and Aar is the absorbance after reaction with DPPH•.

[2] = Hydrogen peroxide scavenging (H2O2) assay; conditions: mean ± SEM, n = 3; read-out: H2O2 radical scavenging IC50
Protocol: Amongst the reactive oxygen species (ROS), H2O2 is an essential radical as even though it is not lethal of its own accord, but can be changed to further even highly toxic radicals, for instance, OH^• by hypochlorous acid or Fenton reaction by the oxidases enzymes. A solution of H2O2 (40 µM) was added in phosphate buffer saline ([…] pH 7.4). Different quantities of test and references compounds in DMSO were added to 2 mL of hydrogen peroxide solution in buffer solution. Subsequently, upon to 10 min, the absorbance was calculated at 230 nm against a blank solution including phosphate buffer without H2O2 [31]. The percentage of scavenging H2O2 was estimated by the formula in this way: %ScavengingH2O2=AS-AT/Ai×100 where AS is the absorbance of control and AT is the absorbance of the test.

hMAO-B [3] = target: T1, hMAO-B (Homo sapiens, UniProt P27338); test: hMAO-B inhibition, Amplex Red fluorometric assay; format: biochemical; conditions: recombinant hMAO-B, p-tyramine substrate; mean SEM
T1 construct: host or cells: insect cells (BTI-TN-5B14), recombinant baculovirus
T1 sequence (P27338 1-520): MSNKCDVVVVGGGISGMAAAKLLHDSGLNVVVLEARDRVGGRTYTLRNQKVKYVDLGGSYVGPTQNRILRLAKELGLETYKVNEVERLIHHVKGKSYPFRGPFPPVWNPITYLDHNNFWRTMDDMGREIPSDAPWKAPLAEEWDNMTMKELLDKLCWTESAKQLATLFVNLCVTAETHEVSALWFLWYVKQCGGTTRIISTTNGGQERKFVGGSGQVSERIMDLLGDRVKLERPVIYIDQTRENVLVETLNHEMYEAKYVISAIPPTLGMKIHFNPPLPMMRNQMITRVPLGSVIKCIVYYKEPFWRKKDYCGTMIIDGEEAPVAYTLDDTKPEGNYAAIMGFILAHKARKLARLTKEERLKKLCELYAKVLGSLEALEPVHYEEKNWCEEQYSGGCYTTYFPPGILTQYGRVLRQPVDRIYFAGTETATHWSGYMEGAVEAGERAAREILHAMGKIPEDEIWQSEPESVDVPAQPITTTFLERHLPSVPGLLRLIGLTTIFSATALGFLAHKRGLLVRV
Text: (§3) The biological hMAO activity evaluation of the test drugs was examined by quantifying their action on the generation of H2O2 by p-tyramine (general substrate for hMAO-B and hMAO-A), utilizing the Amplex Red MAO assay kit (Sigma USA) and MAO isoforms (microsomal) obtained from insect cells (BTI-TN-5B14) expressed as recombinant baculovirus consisting cDNA probes for hMAO-A or hMAO-B. Reactions were monitored by thin layer chromatography TLC executed over silica gel precoated plates (0.25 mm) purchased from Merck, envisioned of single spots was carried in iodine and UV chambers, in mobile media TLC- Benzene:Chloroform (7:3).
(§4) All synthesized compounds were evaluated for their capability to inhibit the MAO-A and MAO-B isoforms of human MAO by a fluorometric method. The MAO inhibitory property of the test compounds was examined with the recombinant human enzymes using an Amplex Red Monoamine Oxidase Assay Kit (Sigma USA). The incessant peroxidase-linked photometric assay was performed on the fluorometer. […] Distilled water was used as a negative control. In brief, 0.1 mL of sodium phosphate buffer (0.05 M, pH 7.4) with the test new compounds/reference inhibitors in different concentrations and sufficient quantity of recombinant hMAO-A or hMAO-B requisite and in step to complete our investigational protocol with the equal reaction velocity, (hMAO-A: 1.1 mg protein; explicit activity: 150 nmol of p-tyramine oxidized to p-hydroxyphenylacetaldehyde/min/mg protein; hMAO-B: 7.5 mg protein; explicit activity: 22 nmol of p-tyramine changed/min/mg protein) were incubated for 15 min at 37 °C, placed in the dark fluorometric compartment. After incubation, the effect was attained through the addition of 200 mM Amplex Red reagent (final concentrations), 1 mM p-tyramine, and 1 U/mL horseradish peroxidase. Finally, the generation of hydrogen peroxide and, subsequently, of resorufin was measured at 37 °C in fluorescence reader (λemission, 585 nm, λexcitation, 530 nm) after 15 min, by the time fluorescence amplified linearly. All the control experiments were performed concurrently by changing the reference inhibitors and test compounds with suitable dilutions in the solvents. Moreover, the activity of abovementioned evaluated compounds to alter the fluorescence produced in the combination reaction by (e.g. for reacting with Amplex Red reagent directly) non-enzymatic inhibition was identified by addition of these compounds to solutions having just the Amplex Red reagent in a sodium phosphate buffer. […] The fluorescence reading was computed by subtraction of the background activity and was evaluated from wells with all components not including the hMAO isoforms that was substituted by a sodium phosphate buffer solution. All data was processed in Microsoft Excel, to calculate IC50 values.

hMAO-A [4] = target: T2, hMAO-A (Homo sapiens, UniProt P21397); test: hMAO-A inhibition, Amplex Red fluorometric assay; format: biochemical; conditions: for Selectivity index: IC50 (MAO-A)/IC50 (MAO-B); for IC50: recombinant hMAO-A, p-tyramine substrate, mean SEM;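 as to all read-outs here: recombinant human MAO-A and MAO-B from baculovirus-infected insect cell microsomes, H2O2 formation detected fluorometrically via Amplex Red with horseradish peroxidase, background from enzyme-free wells subtracted, distilled water negative control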
T2 construct: host or cells: insect cells (BTI-TN-5B14), recombinant baculovirus
T2 sequence (P21397 1-527): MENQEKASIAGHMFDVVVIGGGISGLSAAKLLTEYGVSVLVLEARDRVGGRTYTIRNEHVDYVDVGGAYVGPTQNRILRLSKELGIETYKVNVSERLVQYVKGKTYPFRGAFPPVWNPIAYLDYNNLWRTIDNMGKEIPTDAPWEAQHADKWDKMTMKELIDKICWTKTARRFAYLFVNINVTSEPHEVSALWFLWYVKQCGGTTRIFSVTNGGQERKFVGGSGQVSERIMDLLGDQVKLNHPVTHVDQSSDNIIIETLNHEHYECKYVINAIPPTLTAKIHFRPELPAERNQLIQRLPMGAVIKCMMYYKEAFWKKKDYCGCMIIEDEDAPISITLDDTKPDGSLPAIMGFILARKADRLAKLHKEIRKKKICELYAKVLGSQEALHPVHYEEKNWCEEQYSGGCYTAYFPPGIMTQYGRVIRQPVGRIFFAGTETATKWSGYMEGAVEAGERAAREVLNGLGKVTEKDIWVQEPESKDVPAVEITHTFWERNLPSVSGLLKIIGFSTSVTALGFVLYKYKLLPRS
Text: as §3, §4

hMAO-B [5] = target: T1, hMAO-B; test: Enzyme kinetics of MAO-B (Lineweaver–Burk plots); format: biochemical; conditions: several inhibitor concentrations, tyramine substrate
Protocol: (§1) A set of Lineweaver–Burk plots was constructed in the presence and absence of different concentrations of compound 7 and 5 for hMAO-A and hMAO-B respectively. The graph comprises of five plots, every plot raised by quantifying MAO-B and MAO-A catalytic rate at various concentrations of substrate (0.5–5.0 µM).
(§2) Kinetic constants of steady-state (Vmax, maximum rate, and Km, Michaelis constant,) were measured by studying the effects of substrate concentration on the primary rate of reaction of MAO-A or MAO-B in absence and presence of compounds at diverse concentrations. To examine the mode of action by synthesized derivatives all of them were solubilized in dimethyl sulfoxide, with the concentration of 1%, and utilized in a wide concentration range. Construction of Lineweaver–Burk plots illustrated the mode of MAO inhibition. Selectivity index SI (Ki (MAO-A)/Ki (MAO-B)) was also computed. Enzyme kinetics for the interaction of the compounds with the MAO enzymes was computed on the GraphPad Prism 7 software.

hMAO-A [6] = target: T2, hMAO-A; test: Enzyme kinetics of MAO-A (Lineweaver–Burk plots); format: biochemical; conditions: tyramine substrate
Protocol: as §1, §2

rMAO-B = conditions: cited from earlier work
rMAO-A = conditions: cited from earlier work
MAO-B = conditions: at high concentrations 100 µM; cited from earlier work
MAO-A = conditions: cited from earlier work
monoamine oxidase-B = conditions: cited from earlier work
hMAO-A [7] = target: T2, hMAO-A; conditions: cited from earlier work

Row | SMILES | IC50 [1] | IC50 [2] | IC50 (hMAO-B [3]) | Selectivity index (hMAO-A [4]) | IC50 (hMAO-A [4]) | melting point | other results
1 | CC1CCC(C(C)C)C(OC(=O)/C=C/c2ccc(O)c(O)c2)C1 (stereo not shown) [Compound 12, (E)-2-isopropyl-5-methylcyclohexyl 3-(3,4-dihydroxyphenyl)acrylate] | 15.37 ± 0.054 µM | 14.65 ± 0.026 µM | 48.54 ± 0.077 µM | 0.453 | 22.02 ± 0.018 µM |  | 
2 | Cc1ccc(C(C)C)cc1OC(=O)/C=C/c1ccc(O)c(O)c1 [Compound 8, (E)-5-isopropyl-2-methylphenyl 3-(3,4-dihydroxyphenyl)acrylate] | 11.94 ± 0.025 µM | 11.88 ± 0.008 µM | 27.26 ± 0.072 µM | 0.724 | 19.75 ± 0.066 µM | 182 to 182.6 °C | 
3 | C=CCc1ccc(OC(=O)/C=C/c2ccc(O)c(O)c2)c(OC)c1 [Compound 7, (E)-4-allyl-2-methoxyphenyl 3-(3,4-dihydroxyphenyl)acrylate] | 11.22 ± 0.012 µM | 12.78 ± 0.024 µM | 24.14 ± 0.017 µM | 0.291 | 7.03 ± 0.022 µM | 161 to 161.7 °C | Mode of inhibition (hMAO-A) (hMAO-A [6]): competitive inhibition mode
4 | O=c1oc2c(O)c(O)cc3c(=O)oc4c(O)c(O)cc1c4c23 [Ellagic acid] |  |  |  |  |  |  | MAO inhibition value rMAO-B (rMAO-B): 412.24 nM rMAO-B
5 | O=C(/C=C/c1ccc(O)c(O)c1)Oc1ccc2ccccc2c1 [Compound 11, (E)-naphthalen-2-yl 3-(3,4-dihydroxyphenyl)acrylate] | 12.95 ± 0.031 µM | 11.34 ± 0.045 µM | 21.48 ± 0.056 µM | 1.233 | 24.34 ± 0.011 µM | 176 to 176.9 °C | 
6 | O=C(O)/C=C/c1ccccc1 [Trans-Cinnamic acid] |  |  |  |  |  |  | MAO inhibition value rMAO-B (rMAO-B): 1.21 ± 0.071 µM; MAO inhibition value rMAO-A (rMAO-A): 6.47 ± 0.73 µM
7 | O=C1O[C@H]([C@@H](O)CO)C(O)=C1O [L-Ascorbic acid, reference compound] |  | 8.12 ± 0.082 µM |  |  |  |  | 
8 | O=C(/C=C/c1ccc(O)c(O)c1)OCCc1ccccc1 [CAPE, caffeic acid phenethyl ester] |  |  |  |  |  |  | MAO-B inhibition in words (MAO-B): inhibiting MAO-B
9 | O=C(O)/C=C/c1ccc(O)c(O)c1 [Caffeic acid, reference compound] | 9.679 ± 0.013 µM | 8.868 ± 0.011 µM | 22.88 ± 0.009 µM | 0.512 | 11.72 ± 0.044 µM |  | IC50 (MAO-A): > 1000 µM; Inhibition of MAO-A activity (MAO-A): up to 40.4%; Monoamine oxidase-B inhibition in words (monoamine oxidase-B): did not produce significant monoamine oxidase-B inhibition
10 | O=C(/C=C/c1ccc(O)c(O)c1)O[C@H](Cc1ccc(O)c(O)c1)C(=O)O [rosmarinic acid] |  |  |  |  |  |  | Monoamine oxidase-B inhibition in words (monoamine oxidase-B): did not produce significant monoamine oxidase-B inhibition
11 | COc1cc(C=O)ccc1OC(=O)/C=C/c1ccc(O)c(O)c1 [Compound 6, (E)-4-formyl-2-methoxyphenyl 3-(3,4-dihydroxyphenyl)acrylate] | 11.34 ± 0.001 µM | 21.69 ± 0.034 µM | 16.25 ± 0.035 µM | 1.252 | 20.36 ± 0.002 µM | 150 to 151 °C | MAO isoform selectivity in words (hMAO-A [4]; hMAO-A vs hMAO-B): selective for hMAO-B
12 | O=C(O)c1ccc(O)c(O)c1 [Protocatechuic acid] |  |  |  |  |  |  | MAO inhibition value rMAO-B (rMAO-B): 2411 µM; MAO inhibition value rMAO-A (rMAO-A): 300 µM
13 | O=C(O)c1cc(O)c(O)c(O)c1 [Gallic acid] |  |  |  |  |  |  | MAO inhibition value hMAO-A (hMAO-A [7]): 9.49 ± 0.83 hMAO-A µM

Now from value to molecule, other results behind:

Row | IC50 [1] | IC50 [2] | IC50 (hMAO-B [3]) | Selectivity index (hMAO-A [4]) | IC50 (hMAO-A [4]) | melting point | SMILES | other results
14 | 20.8 ± 0.003 µM | 17.64 ± 0.005 µM | 10.8 ± 0.024 µM | 4.653 | 50.26 ± 0.035 µM | 176 to 176.3 °C | O=C(/C=C/c1ccc(O)c(O)c1)Nc1cccc2ccccc12 [Compound 5, (E)-3-(3,4-dihydroxyphenyl)-N-(naphthalen-1-yl)acrylamide] | Vmax in Lineweaver–Burk plot (hMAO-B) (hMAO-B [5]): same Vmax value at several concentrations
15 | 13.56 ± 0.003 µM | 12.56 ± 0.021 µM | 21.14 ± 0.025 µM | 0.838 | 17.72 ± 0.006 µM |  | O=C(/C=C/c1ccc(O)c(O)c1)Nc1ccc(Br)cc1 [Compound 3, (E)-N-(4-bromophenyl)-3-(3,4-dihydroxyphenyl)acrylamide] | 
16 | 9.19 ± 0.001 µM | 9.486 ± 0.017 µM | 57.88 ± 0.029 µM | 0.319 | 18.47 ± 0.007 µM |  | O=C(/C=C/c1ccc(O)c(O)c1)Nc1cccc(F)c1 [Compound 4, (E)-3-(3,4-dihydroxyphenyl)-N-(3-fluorophenyl)acrylamide] | 
17 | 10.57 ± 0.004 µM | 9.907 ± 0.014 µM | 27.25 ± 0.004 µM | 0.379 | 10.33 ± 0.012 µM | 198 to 198.4 °C | O=C(/C=C/c1ccc(O)c(O)c1)Oc1cccc(O)c1 [Compound 9, (E)-3-hydroxyphenyl 3-(3,4-dihydroxyphenyl)acrylate] | 
18 | 11.34 ± 0.078 µM | 11.39 ± 0.042 µM | 12.95 ± 0.046 µM | 1.947 | 25.22 ± 0.015 µM |  | CCNC(=O)/C=C/c1ccc(O)c(O)c1 [Compound 10, (E)-3-(3,4-dihydroxyphenyl)-N-ethylacrylamide] | 
19 | 6.39 ± 0.007 µM | 6.292 ± 0.007 µM | 42.34 ± 0.077 µM | 0.209 | 8.87 ± 0.005 µM | 230 to 231 °C | O=C(/C=C/c1ccc(O)c(O)c1)Nc1ccc([N+](=O)[O-])cc1Cl [Compound 1, (E)-N-(2-chloro-4-nitrophenyl)-3-(3,4-dihydroxyphenyl)acrylamide] | 
20 | 8.09 ± 0.042 µM | 8.544 ± 0.015 µM | 44.42 ± 0.014 µM | 0.191 | 8.51 ± 0.017 µM | 200 to 202 °C | O=C(/C=C/c1ccc(O)c(O)c1)Nc1ccc(Cl)cc1[N+](=O)[O-] [Compound 2, (E)-N-(4-chloro-2-nitrophenyl)-3-(3,4-dihydroxyphenyl)acrylamide] | 
